In US11873298B2, “Compounds and uses thereof” (JANSSEN PHARMACEUTICA NV, priority 2017, dated 2024):

Molecular target: T1, SCD5 (Homo sapiens, UniProt Q86SK9)
T1 construct: host or cells: S. cerevisiae ole1Δ strain (W303 pdr1Δ pdr3Δ background), plasmid pRS316 with TDH3 promoter and CYC1 terminator
T1 sequence (Q86SK9 1-330): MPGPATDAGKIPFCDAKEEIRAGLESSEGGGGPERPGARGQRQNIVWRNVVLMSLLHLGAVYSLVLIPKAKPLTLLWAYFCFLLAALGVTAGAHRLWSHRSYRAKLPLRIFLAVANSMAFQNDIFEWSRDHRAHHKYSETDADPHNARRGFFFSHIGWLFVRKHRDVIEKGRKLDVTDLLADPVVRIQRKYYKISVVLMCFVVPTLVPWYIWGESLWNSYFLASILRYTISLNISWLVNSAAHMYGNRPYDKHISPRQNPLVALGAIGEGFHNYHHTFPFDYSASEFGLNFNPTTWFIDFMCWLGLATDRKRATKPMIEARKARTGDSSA
Test: Growth inhibition of humanized yeast strain expressing SCD5 as sole desaturase
Format: cell-based
Description: Strain oleΔ (yeast ole1 deletion mutant) was constructed by deleting OLE1 with NAT-MX6 in BY4741, amplifying the deletion cassette from the genomic DNA of the resulting strain with primers flanking the ORF by 1000 bp upstream and downstream, transforming the resulting deletion cassette into W303 pdr1Δ pdr3Δ, and plating transformants on YPD media containing G418 (200 μg/mL) and nourseothricin ([…]) with 0.01% TWEEN®-20 and 0.5 mM oleic and palmitoleic acids.
The coding sequence of yeast OLE1 was also cloned into this plasmid). These clones were then transformed into the ole1Δ strain and plated on CSM-Ura media (CSM lacking uracil) with 2% glucose (w/v) and independent colonies were isolated and amplified.
All compound profiling experiments were performed using the same basic protocol. Different genetic backgrounds (e.g., gene deletions) or conditions (e.g., addition of oleic and palmitoleic acid) were replaced as indicated below.
Yeast were cultured using standard techniques in complete synthetic media (CSM) and yeast nitrogen base supplemented with 2% (w/v) carbon source (glucose, raffinose, or galactose) to regulate the expression of the toxic disease protein. An initial starter culture was inoculated in 3 mL CSM-Glucose media and incubated overnight in a 30° C. shaker incubator (225 rpm). Saturated morning cultures were then diluted 1:20 in fresh CSM-Raffinose media and grown for 6 h to an OD600 (optical density) of ˜0.4-0.8 at 30° C. with shaking.
Compound administration was performed in two separate steps. First, 15 μL of CSM-Galactose (induces expression of toxic protein) was dispensed into clear 384 well assay plates using a MULTIDROP™ Combi reagent dispenser. […] The cultures described above were then diluted to a 2× concentration (0.03 and 0.08 for alpha-synuclein and ApoE, final ODsoo of 0.015 and 0.04) in CSM-Galactose. For wild-type and Ole1/SCD1/SCD5 plasmid-containing strains, the 2× cell density was 0.02. […] For 96-well assays (FIGS. 1A and 1B), compound dilutions in DMSO were generated in 96 well plates and 1 μL was manually pipetted into 96 well clear bottom assay plates.
For experiments using a plasmid-borne copy of Ole1, SCD1, or SCD5 (FIGS. 3B, 6, and 7), media lacking uracil (SX-Ura, where X is glucose, raffinose, or galactose), was used for all steps of the compound profiling protocol to ensure its maintenance throughout the assay.
After yeast delivery, assay plates were incubated under humidified conditions at 30° C. for 24 to 40 h. ApoE4 rescue experiments were stopped at 24 h, aSyn experiments at 40 h, Ole1 at 24 h, and SCD1/SCD5 at 40 h. The growth of yeast was monitored by reading the ODsoo of each well using a microplate reader (Perkin Elmer EnVision™).

[1] = humanized yeast strain expressing SCD5
[2] = yeast strain expressing human SCD5 as sole desaturase, Table 8

Row | Compound | IC50 [1] | IC50 [2]
1 | COCC(=O)N1CCN(c2nc(-c3ccc4cnn(C(C)C)c4c3)no2)CC1 [Compound 595] | > 45000 nM | 
2 | CC(C)n1ncc2ccc(-c3noc([C@H]4CC[C@H](N)CC4)n3)cc21 [Compound 596] | > 45000 nM | 
3 | C[C@@H](O)C(=O)N1CCC(c2nc(-c3ccc4cnn(C5COC5)c4c3)no2)CC1 [Compound 597] | > 45000 nM | 
4 | O=C(NCC(=O)N1CCC(c2nc(-c3ccc4cnn(C5COC5)c4c3)no2)CC1)c1ccccc1 [Compound 598] | > 45000 nM | 
5 | N#Cc1cccc(N2C[C@@H](C(=O)N3CCC(c4nc(-c5ccc6cnn(C7COC7)c6c5)no4)CC3)CC2=O)c1 [Compound 599] | > 45000 nM | 
6 | N#Cc1cccc(N2C[C@H](C(=O)N3CCC(c4nc(-c5ccc6cnn(C7COC7)c6c5)no4)CC3)CC2=O)c1 [Compound 600] | > 45000 nM | 
7 | CC1(OC(=O)N2CCC(c3noc(-c4cccc(C5CCOC5)n4)n3)CC2)CC1 (stereo not shown) [Compound 1197] |  | 17900 nM
8 | CC1(OC(=O)N2CCC(c3noc(-c4cncc(N5CCC(F)(F)C5)c4)n3)CC2)CC1 [Compound 1198] |  | 1720 nM
9 | CC(C)C(=O)N1CCC(c2noc(-c3cncc(C4CCOC4)c3)n2)CC1 (stereo not shown) [Compound 1199] |  | 3780 nM
10 | CC(C)(C)OC(=O)N1CCC(c2noc(-c3ccnc(N4CCC(F)(F)C4)c3)n2)CC1 [Compound 1200] |  | 210 nM
11 | CC(C)(C)OC(=O)N1CCC(c2cc(-c3ccnc(C4CCOC4)n3)no2)CC1 (stereo not shown) [Compound 1202] |  | 7130 nM
12 | CC(C)C(=O)N1CCC(c2noc(-c3cc(C4CCOC4)ccn3)n2)CC1 (stereo not shown) [Compound 1204] |  | 2390 nM
13 | CC1(OC(=O)N2CCC(c3noc(-c4cc(C5CCOC5)ccn4)n3)CC2)CC1 (stereo not shown) [Compound 1205] |  | 330 nM
14 | CC1(OC(=O)N2CCC(c3noc(-c4cncc(C5CCOC5)c4)n3)CC2)CC1 (stereo not shown) [Compound 1206] |  | 320 nM
15 | CC(C)(C)OC(=O)N1CCC(c2noc(-c3ccnc(-c4cnoc4)c3)n2)CC1 [Compound 1213] |  | 60 nM
16 | CC(C)CC(=O)N1CCC(c2noc(-c3cnc4cnn(C5COC5)c4c3)n2)CC1 [Compound 1214] |  | 390 nM
17 | CCS(=O)(=O)N1CCC(c2noc(-c3ccc4cnn(C5COC5)c4c3)n2)CC1 [Compound 1216] |  | 330 nM
18 | CC(C)S(=O)(=O)N1CCC(c2noc(-c3ccc4cnn(C5COC5)c4c3)n2)CC1 [Compound 1218] |  | 160 nM
19 | CC1(OC(=O)N2CCC(c3noc(-c4ccnc(-c5cnoc5)c4)n3)CC2)CC1 [Compound 1220] |  | 100 nM
20 | CC(C)C(=O)N1CCC(c2noc(N3CCc4cnn(C5COC5)c4C3)n2)CC1 [Compound 1223] |  | 2300 nM

Row | Compound | IC50 [1] | IC50 [2]
21 | CC1(OC(=O)N2CCC(c3noc(N4CCc5cnn(C6COC6)c5C4)n3)CC2)CC1 [Compound 1224] |  | 60 nM
22 | CC(C)(C)OC(=O)N1CCC(c2cc(-c3cnc4cnn(C5COC5)c4c3)on2)CC1 [Compound 1225] |  | 120 nM
23 | CC(C)C(=O)N1CCC(c2cc(-c3cc4c(cn3)cnn4C3COC3)on2)CC1 [Compound 1226] |  | 20 nM
24 | CCC(=O)N1CCC(c2cc(-c3cc4c(cn3)cnn4C3COC3)on2)CC1 [Compound 1227] |  | 960 nM
25 | CC(C)(C)OC(=O)N1CCN(c2cc(-c3ccc4cnn(C5COC5)c4n3)on2)CC1 [Compound 1228] |  | 1950 nM
26 | O=C(N1CCC(c2nc(-c3ccnc(C4CCOC4)c3)no2)CC1)C1(F)CC1 (stereo not shown) [Compound 1229] |  | 1510 nM
27 | COC(=O)N1CCC(c2nc(-c3ccnc(C4CCOC4)c3)no2)CC1 (stereo not shown) [Compound 1230] |  | 6880 nM
28 | CC(C)CC(=O)N1CCC(c2cc(-c3cnc4cnn(C5COC5)c4c3)on2)CC1 [Compound 1231] |  | 16400 nM
29 | O=C(C1CCC1)N1CCC(c2cc(-c3cnc4cnn(C5COC5)c4c3)on2)CC1 [Compound 1232] |  | 7840 nM
30 | CC(C)(C)OC(=O)N1CCC(c2noc(-c3cnnc(C4CCOC4)c3)n2)CC1 (stereo not shown) [Compound 1234] |  | 490 nM
31 | O=C(C1CC1)N1CCC(c2cc(-c3cc4c(cn3)cnn4C3COC3)on2)CC1 [Compound 1236] |  | 200 nM
32 | CC1(C(=O)N2CCC(c3cc(-c4cc5c(cn4)cnn5C4COC4)on3)CC2)CC1 [Compound 1237] |  | 70 nM
33 | COC(=O)N1CCN(c2cc(-c3ccc4cnn(C5COC5)c4n3)on2)CC1 [Compound 1238] |  | 24600 nM
34 | O=C(C1CCC1)N1CCC(c2noc(-c3ccnc([C@H]4CCOC4)c3)n2)CC1 [Compound 1240] |  | 200 nM
35 | O=C(C1CCC1)N1CCC(c2noc(-c3ccnc([C@@H]4CCOC4)c3)n2)CC1 [Compound 1242] |  | 380 nM
36 | COC(=O)C(O)Cn1ncc2ccc(-c3nc(C4CCN(C(=O)OC(C)(C)C)CC4)no3)cc21 (stereo not shown) [Compound 1244] |  | 760 nM
37 | CC(C)(C)OC(=O)N1CCC(c2noc(-c3ccnc(-c4cnco4)c3)n2)CC1 [Compound 1245] |  | 580 nM
38 | O=C(C1CCC1)N1CCC(c2noc(-c3ccnc(N4CCC(F)(F)C4)c3)n2)CC1 [Compound 1246] |  | 400 nM
39 | O=C(C1CC1)N1CCC(c2noc(-c3ccnc(N4CCC(F)(F)C4)c3)n2)CC1 [Compound 1247] |  | 1050 nM
40 | CCC(=O)N1CCC(c2noc(-c3ccnc(N4CCC(F)(F)C4)c3)n2)CC1 [Compound 1248] |  | 6930 nM

Row | Compound | IC50 [1] | IC50 [2]
41 | CC(C)(C)OC(=O)N1CCC(c2noc(-c3ccc(OC4COC4)nc3)n2)CC1 [Compound 1249] |  | 4910 nM
42 | COC(=O)N1CCC(c2noc(-c3cnnc(C4CCOC4)c3)n2)CC1 (stereo not shown) [Compound 1250] |  | 10100 nM
43 | O=C(C1CC1)N1CCC(c2noc(-c3cnc4cnn(C5CCOC5)c4c3)n2)CC1 (stereo not shown) [Compound 1251] |  | 30 nM
44 | O=C(C1CC1)N1CCC(c2noc(-c3ccnc(O[C@@H]4CCOC4)c3)n2)CC1 [Compound 1255] |  | 1880 nM
45 | O=C(C1CCC1)N1CCC(c2noc(-c3ccc(F)c(N4CCOCC4)c3)n2)CC1 [Compound 1258] |  | 40 nM
46 | O=C(C1CC1)N1CCC(c2noc(-c3ccc(F)c(N4CCOCC4)c3)n2)CC1 [Compound 1259] |  | 40 nM
47 | COC(=O)N1CCC(c2noc(N3CCc4cnn(C(C)C)c4C3)n2)CC1 [Compound 1260] |  | 250 nM
48 | CC(C)(C)OC(=O)N1CCC(c2noc(-c3ccc(C4CCOC4)nc3)n2)CC1 (stereo not shown) [Compound 1262] |  | 14100 nM
49 | CC(C)C(=O)N1CCC(c2noc(-c3ccnc(-c4cnco4)c3)n2)CC1 [Compound 1264] |  | 3270 nM
50 | CC(C)(C)OC(=O)N1CCC(c2noc(-c3cc(C4CCOC4)ncc3F)n2)CC1 (stereo not shown) [Compound 1267] |  | 2650 nM
51 | CC1(OC(=O)N2CCC(c3noc(-c4ccc(C5CCOC5)nc4)n3)CC2)CC1 (stereo not shown) [Compound 1268] |  | 32600 nM
52 | O=C(C1CCC1)N1CCC(c2noc(-c3ccnc(O[C@@H]4CCOC4)c3)n2)CC1 [Compound 1269] |  | 590 nM
53 | CC1(C(=O)N2CCC(c3noc(-c4cncc(C5CCOC5)c4)n3)CC2)CCC1 (stereo not shown) [Compound 1270] |  | 400 nM
54 | Cn1cc2c(n1)CN(c1nc(C3CCN(C(=O)OC(C)(C)C)CC3)no1)CC2 [Compound 1272] |  | 7540 nM
55 | CC(C)(C)OC(=O)N1CCC(c2noc(-c3cc(N4CCOCC4)c(F)cn3)n2)CC1 [Compound 1273] |  | 20 nM
56 | COC(=O)N1CCC(c2noc(-c3cc(C4CCOC4)ncc3F)n2)CC1 (stereo not shown) [Compound 1274] |  | 190 nM
57 | O=C(N1CCC(c2noc(-c3cc(C4CCOC4)ncc3F)n2)CC1)C1(F)CCC1 (stereo not shown) [Compound 1275] |  | 20 nM
58 | CCC(=O)N1CCC(c2noc(-c3cc(N4CCOCC4)c(F)cn3)n2)CC1 [Compound 1276] |  | 4680 nM
